How the values were obtained:
[1] = system: MKN45 gastric cancer cells; assay: Cell viability (CellTiter Glo) in MKN45 gastric cancer cell line; type: cell-based; conditions: for cell growth inhibition: MKN45, 72 hours, L3-1Y/IgG2 0-2 ug/ml, PD173074 fixed at 10 uM
Method: In particular, RPMI1640 medium (GIBCO) containing 10% FBS was put in a 96 well plate. MKN45 gastric cancer cells (JCRB, JCRB0254) were seeded thereon in the amount of 5,000 cells/well, and incubated overnight at 37° C. After 24 hours (the next day), the incubated cells were treated with L3-1Y/IgG2 (Reference Example 1) alone, or co-treated with L3-1Y/IgG2 and a FGFR inhibitor, PD173074. For the single treatment of L3-1Y/IgG2 alone, the concentration of L3-1Y/IgG2 was 0 ug (microgram)/ml, 0.016 ug/ml, 0.08 ug/ml, 0.4 ug/ml, or 2 ug/ml, and for the co-treatment of L3-1Y/IgG2 and PD173074, the concentration of PD173074 was fixed at 10 uM (micromole) which is a concentration of IC20 in MKN45 cell line, and the concentration of L3-1Y/IgG2 was 0 ug/ml, 0.016 ug/ml, 0.08 ug/ml, 0.4 ug/ml, or 2 ug/ml.
(§1) At 72 hours after the single treatment or the co-treatment, 100 uL (microliter) of CellTiter Glo solution (Promega, G7572) was added to each well, and left for 30 minutes at room temperature. The cell number was counted by emission signal, and the emission signal was recorded using Envision 2104 Multi-label Reader (Perkin Elmer).

[2] = system: L3-1Y/IgG2 resistant MKN45 cells; assay: Cell viability in L3-1Y/IgG2 resistant MKN45 cells; type: cell-based; conditions: 72 hours, PD173074 10 uM, BGJ398 5 uM
Method: To verify that the co-treatment with a FGFR inhibitor allows overcoming a L3-1Y/IgG2 resistance acquired by repeated treatment of L3-1Y/IgG2, L3-1Y/IgG2 resistant cells were prepared by treating L3-1Y/IgG2 to MKN45 gastric cancer cell line for at least 3 months, and used for the following experiment. The L3-1Y/IgG2 resistant cells were prepared as follows: MKN45 cells (JCRB, JCRB0254) were treated with L3-1Y/IgG2, where the concentration of treated L3-1Y/IgG2 was increased from 1 ug/ml to 10 ug/ml, until the resistance is acquired. To verify the acquirement of resistance to L3-1Y/IgG2, the resistance acquired clones were cultured with or without L3-1Y/IgG2 treatment, and at 72 hours after the treatment, the cell number was measured by CellTiter Glo assay (Promega, G7573), referring to the above example,
The synergistic effect of co-treatment of a FGFR inhibitor and L3-1Y/IgG2 was verified as follows. The prepared L3-1Y/IgG2 resistant MKN45 cells were seeded at the amount of 5,000 cells/well on 96 well plate to which RPMI1640 medium (GIBCO) supplemented with 10% FBS is added, and incubated overnight at 37° C. Next day (24 hours after), the incubated cells were treated with L3-1Y/IgG2 alone or together with FGFR inhibitor, PD173074 or BGJ398. For the treatment of L3-1Y/IgG2 only, the concentration of L3-1Y/IgG2 was 0 ug/ml, 0.016 ug/ml, 0.08 ug/ml, 0.4 ug/ml, or 2 ug/ml, and for the co-treatment, the concentration of the FGFR inhibitor was fixed and the concentration of L3-1Y/IgG2 was 0 ug/ml, 0.016 ug/ml, 0.08 ug/ml, 0.4 ug/ml, or 2 ug/ml. The concentration of the FGFR inhibitor was fixed at 10 uM for PD173074 and 5 uM for BGJ398.
as §1, with “uL” for “uL (microliter)”

[3] = system: L3-1Y/IgG2 resistant EBC1 cells; assay: Cell viability in L3-1Y/IgG2 resistant EBC1 cells; type: cell-based; conditions: 72 hours, BGJ398 5 uM
Method: To verify that the co-treatment with a FGFR inhibitor allows overcoming a L3-1Y/IgG2 resistance acquired by repeated treatment of L3-1Y/IgG2, L3-1Y/IgG2 resistant cells were prepared by treating L3-1Y/IgG2 to EBC1 lung cancer cell line for at least 3 months, and used for the following experiment. The EBC1 lung cancer cell line acquiring the resistant to L3-1Y/IgG2 was prepared referring to Example 4.
The synergistic effect of co-treatment of a FGFR inhibitor and L3-1Y/IgG2 was verified as follows. The prepared L3-1Y/IgG2 resistant EBC1 cells were seeded at the amount of 5,000 cells/well on a 96 well plate to which RPMI1640 medium (GIBCO) supplemented with 10% FBS is added, and incubated overnight at 37° C. Next day (24 hours after), the incubated cells were treated with L3-1Y/IgG2 alone or together with FGFR inhibitor, BGJ398. […]
as §1, with “uL” for “uL (microliter)”

[4] = system: MKN45 gastric cancer cells; assay: Tumor xenograft model of MKN45 gastric cancer cell line; type: in vivo, BALB/c nude mice; conditions: 21st day after treatment vs vehicle, BGJ398 10 mg/kg P.O. once a day, L3-1Y/IgG2 1 mg/kg I.V. once a week
Method: To verify the in vivo effect of the co-administration on tumor growth, a tumor xenograft model was prepared using male 5-6 week-old BALB/c nude mice (Pharmalegacy, China). The mice were adapted at least one week before inoculation of tumor cells.
Then, the mice were anesthetized with 1-2% isofurane, and MKN45 gastric cancer cells (JCRB, JCRB0254) were subcutaneously injected into right flank of the mice at the amount of 5×10^6 cells/each mouse. 7 days after, when the average size of tumor reaches 50 mm^3 or more, the mice were grouped into the following groups: a group treated with BGJ398 (10 mg/kg P.O., once a day), a group treated with L3-1Y/IgG2 (1 mg/kg I.V., once a week), a group co-treated with L3-1Y/IgG2 (1 mg/kg, I.V., once a week) and BGJ398 (10 mg/kg, P.O., once a day), and a group (control) treated with vehicle (PBS 0.2 ml, I.V., once a week). Each group consisted of 10 mice.
The experiment was performed for 4 weeks in total, and tumor size and body weight of the mice were measured twice a week. The tumor volume (V) was calculated by the following formula: V(mm^3)={length of long axis(mm)×(length of short axis(mm))^2}/2.

[5] = system: EBC1 lung cancer cells; assay: Cell viability (CellTiter Glo) in EBC1 lung cancer cell line; type: cell-based; conditions: 72 hours, L3-1Y/IgG2 0-2 ug/ml, PD173074 10 uM or BGJ398 5 uM
Method: (§2) In particular, RPMI1640 medium (GIBCO) containing 10% FBS were put in 96 well plate. EBC1 lung cancer cells (JCRB, JCRB0820) were seeded thereon in the amount of 5,000 cells/well, and incubated overnight at 37° C. After 24 hours (the next day), the incubated cells were treated with L3-1Y/IgG2 (Reference Example 1) alone, or co-treated with L3-1Y/IgG2 and a FGFR inhibitor, PD173074 or BGJ398. For the single treatment of L3-1Y/IgG2 alone, the concentration of L3-1Y/IgG2 was 0 ug/ml, 0.016 ug/ml, 0.08 ug/ml, 0.4 ug/ml, or 2 ug/ml, and for the co-treatment of L3-1Y/IgG2 and PD173074 or BGJ398, the concentration of PD173074 was fixed at 10 uM for PD173074 and 5 uM for BGJ398, and the concentration of L3-1Y/IgG2 was 0 ug/ml, 0.016 ug/ml, 0.08 ug/ml, 0.4 ug/ml, or 2 ug/ml.
as §1, with “uL” for “uL (microliter)”

[6] = system: HT29 colon cancer cells; assay: Cell viability (CellTiter Glo) in HT29 colon cancer cell line; type: cell-based; conditions: 72 hours, L3-1Y/IgG2 0-2 ug/ml, PD173074 fixed at 5 uM
Method: as §2, with “HT29 colon” for “EBC1 lung”, “(ATCC, HTB-38)” for “(JCRB, JCRB0820)”, “PD173074.” for “PD173074 or BGJ398.”, “PD173074,” for “PD173074 or BGJ398,”, “at” for “at 10 uM for PD173074 and”, “uM,” for “uM for BGJ398,”
as §1, with “uL” for “uL (microliter)”

Row | Molecule | IC20 ([1]; Homo sapiens, MKN-45, read-out: concentration of IC20 in MKN45 cell line) | cell growth inhibition [1] | cancer cell growth inhibitory effect [2] | cancer cell growth inhibitory effect [3] | tumor inhibition rate, At d21:TV [4] | cell growth inhibition [5] | cell growth inhibiting effect [6]
1 | CCN(CC)CCCCNc1ncc2cc(-c3cc(OC)cc(OC)c3)c(NC(=O)NC(C)(C)C)nc2n1 [PD173074, N-[2-[[4-(Diethylamino)butyl]amino]-6-(3,5-dimethoxyphenyl)pyrido[2,3-d]pyrimidin-7-yl]-N′-(1,1-dimethylethyl)urea] | 10 µM | no significant effect on cell growth | not obtained | – | – | – | –
2 | CCN1CCN(c2ccc(Nc3cc(N(C)C(=O)Nc4c(Cl)c(OC)cc(OC)c4Cl)ncn3)cc2)CC1 [BGJ398, 3-(2,6-dichloro-3,5-dimethoxyphenyl)-1-(6-(4-(4-ethylpiperazin-1-yl)phenylamino)pyrimidin-4-yl)-1-methylurea, reference compound] | – | – | not obtained | not obtained | 1.3% | – | –
3 | L3-1Y/IgG2: anti-c-Met antibody: huAbF46-H4-A1 heavy chain variable region, human IgG2 hinge and constant region, kappa light chain (antibody) heavy: EVQLVESGGGLVQPGGSLRLSCAASGFTFTDYYMSWVRQAPGKGLEWLGFIRNKANGYTTEYSASVKGRFTISRDNSKNTLYLQMNSLRAEDTAVYYCARDNWFAYWGQGTLVTVSSASTKGPSVFPLAPCSRSTSESTAALGCLVKDYFPEPVTVSWNSGALTSGVHTFPAVLQSSGLYSLSSVVTVPSSNFGTQTYTCNVDHKPSNTKVDKTVERKCCVECPPCPAPPVAGPSVFLFPPKPKDTLMISRTPEVTCVVVDVSHEDPEVQFNWYVDGVEVHNAKTKPREEQFNSTFRVVSVLTVVHQDWLNGKEYKCKVSNKGLPAPIEKTISKTKGQPREPQVYTLPPSREEMTKNQVSLTCLVKGFYPSDIAVEWESNGQPENNYKTTPPMLDSDGSFFLYSKLTVDKSRWQQGNVFSCSVMHEALHNHYTQKSLSLSPGK light: DIQMTQSPSSLSASVGDRVTITCKSSQSLLASGNQNNYLAWYQQKPGKAPKMLIIWASTRVSGVPSRFSGSGSGTDFTLTISSLQPEDFATYYCQQSYSRPYTFGQGTKVEIKRTVAAPSVFIFPPSDEQLKSGTASVVCLLNNFYPREAKVQWKVDNALQSGNSQESVTEQDSKDSTYSLSSTLTLSKADYEKHKVYACEVTHQGLSSPVTKSFNRGEC | – | cell growth inhibition is observed | not obtained | not obtained | 27.8% | cell growth inhibiting effect is observed | not observed
